ChEMBL document CHEMBL2375290, “Nonclassical antifolates, part 3: synthesis, biological evaluation and molecular modeling study of some new 2-heteroarylthio-quinazolin-4-ones” (Eur J Med Chem, 2013)

Columns and labels:
T47D = assay: Cytotoxicity against human T47D cells at 10 uM after 48 hrs by coulter counter analysis; format: functional; conditions: read-out: GI
Hs-578T = assay: Cytotoxicity against human Hs578T cells at 10 uM after 48 hrs by coulter counter analysis; format: functional; conditions: read-out: GI
MCF7 = assay: Cytotoxicity against human MCF7 cells at 10 uM after 48 hrs by coulter counter analysis; format: functional; conditions: MCF7, 48 h, read-out: GI
MDA-MB-231 = assay: Cytotoxicity against human MDA-MB-231 cells at 10 uM after 48 hrs by coulter counter analysis; format: functional; conditions: MDA-MB-231, 48 h, read-out: GI
PC-3 = assay: Cytotoxicity against human PC3 cells at 10 uM after 48 hrs by coulter counter analysis; format: functional; conditions: PC-3, 48 h, read-out: GI
UO-31 = assay: Cytotoxicity against human UO31 cells at 10 uM after 48 hrs by coulter counter analysis; format: functional; conditions: UO-31, 48 h, read-out: GI
RXF 393 = assay: Cytotoxicity against human RXF393 cells at 10 uM after 48 hrs by coulter counter analysis; format: functional; conditions: RXF 393, 48 h, read-out: GI
SN12C = assay: Cytotoxicity against human SN12C cells at 10 uM after 48 hrs by coulter counter analysis; format: functional; conditions: read-out: GI
A498 = assay: Cytotoxicity against human A498 cells at 10 uM after 48 hrs by coulter counter analysis; format: functional; conditions: A498, 48 h, read-out: GI
CAKI-1 = assay: Cytotoxicity against human Caki1 cells at 10 uM after 48 hrs by coulter counter analysis; format: functional; conditions: CAKI-1, 48 h, read-out: GI
[1] = Cytotoxicity against human NCI-ADR-RES cells at 10 uM after 48 hrs by coulter counter analysis; format: functional; conditions: read-out: GI
OVCAR-4 = assay: Cytotoxicity against human OVCAR4 cells at 10 uM after 48 hrs by coulter counter analysis; format: functional; conditions: OVCAR-4, 48 h, read-out: GI
UACC-62 = assay: Cytotoxicity against human UACC62 cells at 10 uM after 48 hrs by coulter counter analysis; format: functional; conditions: UACC-62, 48 h, read-out: GI
IGROV-1 = assay: Cytotoxicity against human IGROV1 cells at 10 uM after 48 hrs by coulter counter analysis; format: functional; conditions: IGROV-1, 48 h, read-out: GI
SK-MEL-5 = assay: Cytotoxicity against human SK-MEL-5 cells at 10 uM after 48 hrs by coulter counter analysis; format: functional; conditions: SK-MEL-5, 48 h, read-out: GI
Malme-3M = assay: Cytotoxicity against human MALME-3M cells at 10 uM after 48 hrs by coulter counter analysis; format: functional; conditions: read-out: GI
MDA-MB-435 = assay: Cytotoxicity against human MDA-MB-435 cells at 10 uM after 48 hrs by coulter counter analysis; format: functional; conditions: MDA-MB-435, 48 h, read-out: GI
SNB-75 = assay: Cytotoxicity against human SNB75 cells at 10 uM after 48 hrs by coulter counter analysis; format: functional; conditions: SNB-75, 48 h, read-out: GI
LOX IMVI = assay: Cytotoxicity against human LOXIMVI cells at 10 uM after 48 hrs by coulter counter analysis; format: functional; conditions: read-out: GI
SNB-19 = assay: Cytotoxicity against human SNB19 cells at 10 uM after 48 hrs by coulter counter analysis; format: functional; conditions: SNB-19, 48 h, read-out: GI
NCI-H522 = assay: Cytotoxicity against human NCI-H522 cells at 10 uM after 48 hrs by coulter counter analysis; format: functional; conditions: NCI-H522, 48 h, read-out: GI
SF-295 = assay: Cytotoxicity against human SF295 cells at 10 uM after 48 hrs by coulter counter analysis; format: functional; conditions: SF-295, 48 h, read-out: GI
NCI-H23 = assay: Cytotoxicity against human NCI-H23 cells at 10 uM after 48 hrs by coulter counter analysis; format: functional; conditions: NCI-H23, 48 h, read-out: GI
[2] = Cytotoxicity against human EKVX cells at 10 uM after 48 hrs by coulter counter analysis; format: functional; conditions: read-out: GI
NCI-H226 = assay: Cytotoxicity against human NCI-H226 cells at 10 uM after 48 hrs by coulter counter analysis; format: functional; conditions: NCI-H226, 48 h, read-out: GI
A549 = assay: Cytotoxicity against human A549/ATCC cells at 10 uM after 48 hrs by coulter counter analysis; format: functional; conditions: A549, 48 h, read-out: GI
RPMI-8226 = assay: Cytotoxicity against human RPMI8226 cells at 10 uM after 48 hrs by coulter counter analysis; format: functional; conditions: RPMI-8226, 48 h, read-out: GI
SR = assay: Cytotoxicity against human SR cells at 10 uM after 48 hrs by coulter counter analysis; format: functional; conditions: read-out: GI
MOLT-4 = assay: Cytotoxicity against human MOLT4 cells at 10 uM after 48 hrs by coulter counter analysis; format: functional; conditions: MOLT-4, 48 h, read-out: GI
CCRF-CEM = assay: Cytotoxicity against human CCRF-CEM cells at 10 uM after 48 hrs by coulter counter analysis; format: functional; conditions: read-out: GI
HL-60(TB) = assay: Cytotoxicity against human HL-60(TB) cells at 10 uM after 48 hrs by coulter counter analysis; format: functional; conditions: HL-60, 48 h, read-out: GI
Pseudomonas aeruginosa = assay: Antimicrobial activity against Pseudomonas aeruginosa at 200 ug after 24 hrs by agar disc diffusion method; format: functional; conditions: read-out: DIZ
Escherichia coli = assay: Antimicrobial activity against Escherichia coli at 200 ug after 24 hrs by agar disc diffusion method; format: functional; conditions: read-out: DIZ
Micrococcus luteus = assay: Antimicrobial activity against Micrococcus luteus at 200 ug after 24 hrs by agar disc diffusion method; format: functional; conditions: read-out: DIZ
Bacillus subtilis = assay: Antimicrobial activity against Bacillus subtilis at 200 ug after 24 hrs by agar disc diffusion method; format: functional; conditions: read-out: DIZ
Dihydrofolate reductase = biological target: T1, Dihydrofolate reductase (Bos taurus, UniProt P00376); assay: Inhibition of bovine DHFR after 2 mins by spectrophotometry
T1 sequence (P00376 whole entry): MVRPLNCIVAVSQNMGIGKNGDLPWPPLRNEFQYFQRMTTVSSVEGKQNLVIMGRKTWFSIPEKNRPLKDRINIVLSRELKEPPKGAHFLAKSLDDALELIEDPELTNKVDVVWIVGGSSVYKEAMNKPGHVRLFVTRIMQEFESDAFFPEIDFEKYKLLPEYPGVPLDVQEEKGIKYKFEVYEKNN

Staphylococcus aureus = assay: Antimicrobial activity against Staphylococcus aureus at 200 ug after 24 hrs by agar disc diffusion method; format: functional; conditions: read-out: DIZ

Row | SMILES | inhibition of growth at 10 µM (T47D) [%] | inhibition of growth at 10 µM (Hs-578T) [%] | inhibition of growth at 10 µM (MCF7) [%] | inhibition of growth at 10 µM (MDA-MB-231) [%] | inhibition of growth at 10 µM (PC-3) [%] | inhibition of growth at 10 µM (UO-31) [%] | inhibition of growth at 10 µM (RXF 393) [%] | inhibition of growth at 10 µM (SN12C) [%] | inhibition of growth at 10 µM (A498) [%] | inhibition of growth at 10 µM (CAKI-1) [%] | inhibition of growth at 10 µM [1] [%] | inhibition of growth at 10 µM (OVCAR-4) [%] | inhibition of growth at 10 µM (UACC-62) [%] | inhibition of growth at 10 µM (IGROV-1) [%] | inhibition of growth at 10 µM (SK-MEL-5) [%] | inhibition of growth at 10 µM (Malme-3M) [%] | inhibition of growth at 10 µM (MDA-MB-435) [%] | inhibition of growth at 10 µM (SNB-75) [%] | inhibition of growth at 10 µM (LOX IMVI) [%] | inhibition of growth at 10 µM (SNB-19) [%] | further results
1 | COc1cc2nc(Sc3cnc(N)s3)n(Cc3ccccc3)c(=O)c2cc1OC | < 10 | < 10 | < 10 | 19.1 | 22.4 | 17.4 | < 10 | < 10 | < 10 | 25.4 | < 10 | < 10 | < 10 | < 10 | 12.9 | < 10 | < 10 | 13.3 | 10.8 | < 10 | inhibition of growth at 10 µM (NCI-H522): 19.8%; inhibition of growth at 10 µM (SF-295): < 10%; inhibition of growth at 10 µM (NCI-H23): < 10%; inhibition of growth at 10 µM [2]: 16.1%; inhibition of growth at 10 µM (NCI-H226): 10.4%; inhibition of growth at 10 µM (A549): < 10%; inhibition of growth at 10 µM (RPMI-8226): 15.9%; inhibition of growth at 10 µM (SR): < 10%; inhibition of growth at 10 µM (MOLT-4): < 10%; inhibition of growth at 10 µM (CCRF-CEM): 22.8%; inhibition of growth at 10 µM (HL-60(TB)): < 10%; zone of inhibition at 200 µg/disc (Pseudomonas aeruginosa): 8 mm; zone of inhibition at 200 µg/disc (Escherichia coli): 16 mm; zone of inhibition at 200 µg/disc (Micrococcus luteus): 8 mm; zone of inhibition at 200 µg/disc (Bacillus subtilis): 18 mm; IC50 (Dihydrofolate reductase): 3 µM; zone of inhibition at 200 µg/disc (Staphylococcus aureus): 17 mm
2 | Nc1ncc(Sc2nc3ccc(Cl)cc3c(=O)n2Cc2ccccc2)s1 | 10.4 | < 10 | < 10 | 11.2 | 28.2 | 14.8 | < 10 | < 10 | 11.2 | 25.6 | < 10 | 13.8 | 14.4 | 12 | < 10 | 10.8 | < 10 | 10.7 | 14.9 | < 10 | inhibition of growth at 10 µM (NCI-H522): 16%; inhibition of growth at 10 µM (SF-295): 16.6%; inhibition of growth at 10 µM (NCI-H23): < 10%; inhibition of growth at 10 µM [2]: 11.9%; inhibition of growth at 10 µM (NCI-H226): 17.1%; inhibition of growth at 10 µM (A549): < 10%; inhibition of growth at 10 µM (RPMI-8226): 18.9%; inhibition of growth at 10 µM (SR): < 10%; inhibition of growth at 10 µM (MOLT-4): 16.8%; inhibition of growth at 10 µM (CCRF-CEM): 13.7%; inhibition of growth at 10 µM (HL-60(TB)): < 10%; zone of inhibition at 200 µg/disc (Pseudomonas aeruginosa): 8 mm; zone of inhibition at 200 µg/disc (Escherichia coli): 15 mm; zone of inhibition at 200 µg/disc (Micrococcus luteus): 8 mm; zone of inhibition at 200 µg/disc (Bacillus subtilis): 18 mm; IC50 (Dihydrofolate reductase): 2 µM; zone of inhibition at 200 µg/disc (Staphylococcus aureus): 16 mm
3 | O=C(O)c1cccnc1Sc1nc2ccc(Cl)cc2c(=O)n1-c1ccccc1 | 15 | < 10 | < 10 | 10.4 | < 10 | 20.5 | < 10 | < 10 | < 10 | < 10 | < 10 | < 10 | < 10 | < 10 | < 10 | < 10 | < 10 | < 10 | < 10 | < 10 | inhibition of growth at 10 µM (NCI-H522): < 10%; inhibition of growth at 10 µM (SF-295): < 10%; inhibition of growth at 10 µM (NCI-H23): < 10%; inhibition of growth at 10 µM [2]: < 10%; inhibition of growth at 10 µM (NCI-H226): 15.1%; inhibition of growth at 10 µM (A549): < 10%; inhibition of growth at 10 µM (RPMI-8226): < 10%; inhibition of growth at 10 µM (SR): < 10%; inhibition of growth at 10 µM (MOLT-4): < 10%; inhibition of growth at 10 µM (CCRF-CEM): < 10%; inhibition of growth at 10 µM (HL-60(TB)): < 10%; zone of inhibition at 200 µg/disc (Pseudomonas aeruginosa): 8 mm; zone of inhibition at 200 µg/disc (Escherichia coli): 8 mm; zone of inhibition at 200 µg/disc (Micrococcus luteus): 8 mm; zone of inhibition at 200 µg/disc (Bacillus subtilis): 16 mm; IC50 (Dihydrofolate reductase): 8 µM; zone of inhibition at 200 µg/disc (Staphylococcus aureus): 15 mm
4 | Cc1ccc2nc(Sc3cnc(N)s3)n(-c3ccccc3)c(=O)c2c1 | < 10 | < 10 | < 10 | 18.1 | 10.1 | 20.7 | < 10 | < 10 | < 10 | 20.9 | < 10 | < 10 | < 10 | 14.3 | < 10 | < 10 | < 10 | < 10 | < 10 | < 10 | inhibition of growth at 10 µM (NCI-H522): 13.8%; inhibition of growth at 10 µM (SF-295): < 10%; inhibition of growth at 10 µM (NCI-H23): < 10%; inhibition of growth at 10 µM [2]: < 10%; inhibition of growth at 10 µM (NCI-H226): 12.4%; inhibition of growth at 10 µM (A549): < 10%; inhibition of growth at 10 µM (RPMI-8226): < 10%; inhibition of growth at 10 µM (SR): 37.8%; inhibition of growth at 10 µM (MOLT-4): < 10%; inhibition of growth at 10 µM (CCRF-CEM): < 10%; inhibition of growth at 10 µM (HL-60(TB)): < 10%; zone of inhibition at 200 µg/disc (Pseudomonas aeruginosa): 8 mm; zone of inhibition at 200 µg/disc (Escherichia coli): 8 mm; zone of inhibition at 200 µg/disc (Micrococcus luteus): 8 mm; zone of inhibition at 200 µg/disc (Bacillus subtilis): 8 mm; IC50 (Dihydrofolate reductase): 0.8 µM; zone of inhibition at 200 µg/disc (Staphylococcus aureus): 8 mm
